Laboratory results from the CheMixHub drug solubility set.

Test: xn = mol fraction of the nth substance listed, in the solute-free solvent

Cc1nc(CCl)nc2ccccc12 + CC(C)=O + CCCCCC
solubility (g/100 g solution)
Conditions | x2 = 0.144 | x2 = 0.266 | x2 = 0.403 | x2 = 0.556 | x2 = 0.729
281.15 K | 5.18 | 8.5 | 12.8 | 17.2 | 22.3
286.15 K | 6.57 | 10.8 | 15.5 | 21.2 | 27.1
291.15 K | 8.19 | 13.3 | 19.2 | 25.8 | 32.3
296.15 K | 10.3 | 16.2 | 22.9 | 30.4 | 39.2
301.15 K | 12.7 | 19.9 | 28.3 | 36.2 | 44.9
306.15 K | 15.6 | 23.9 | 33.3 | 42.4 | 51.9
311.15 K | 18.9 | 28.3 | 38.4 | 48.4 | 58.8
316.15 K | 22.5 | 33.1 | 43.7 | 54.6 | 65
321.15 K | 26.6 | 37.2 | 49 | 60.7 | 71
326.15 K | 30.9 | 42.9 | 54.4 | 65.4 | 75.5
331.15 K | 34.9 | 47.5 | 59 | 70.3 | 79.5

O=[N+]([O-])c1cc[nH]n1 + CCCO + O
solubility (g/100 g solution)
Conditions | 283.15 K | 288.15 K | 293.15 K | 298.15 K | 303.15 K | 308.15 K | 313.15 K | 318.15 K | 323.15 K
x2 = 0.03225 | 0.274 | 0.349 | 0.477 | 0.616 | 0.783 | 1.04 | 1.33 | 1.86 | 2.35
x2 = 0.06974 | 0.307 | 0.377 | 0.489 | – | 0.772 | 1.01 | 1.29 | 1.68 | 2.18
x2 = 0.1139 | 0.626 | 0.769 | 0.945 | 1.16 | 1.45 | 1.78 | 2.31 | 2.95 | 3.78
x2 = 0.1666 | 0.964 | 1.19 | 1.43 | 1.76 | 2.13 | 2.64 | 3.29 | 4.2 | 5.32
x2 = 0.2307 | 1.35 | 1.63 | 1.97 | 2.36 | 2.87 | 3.48 | 4.23 | 5.37 | 6.75
x2 = 0.3103 | 1.73 | 2.03 | 2.41 | 2.87 | 3.44 | 4.09 | 4.96 | 6.34 | 7.73
x2 = 0.4117 | 2.08 | 2.44 | 2.82 | 3.32 | 3.87 | 4.69 | 5.64 | 6.61 | 8.31
x2 = 0.5454 | 2.49 | 2.85 | 3.25 | 3.76 | 4.35 | 5.08 | 6.07 | 7.31 | 8.56
x2 = 0.7297 | 2.69 | 3.11 | 3.53 | 4 | 4.54 | 5.23 | 6.03 | 7.19 | 8.45

Cc1ccc(Nc2nccc(N(C)c3ccc4c(C)n(C)nc4c3)n2)cc1S(N)(=O)=O + CC#N + CCCCO
solubility (g/100 g solution)
Conditions | 288.15 K | 293.15 K | 298.15 K | 303.15 K | 308.15 K | 313.15 K | 318.15 K | 323.15 K | 328.15 K
x2 = 0.311 | 0.00876 | 0.015 | 0.0216 | 0.0293 | 0.0367 | 0.0447 | 0.0534 | 0.0638 | 0.0746
x2 = 0.5462 | 0.0159 | 0.0251 | 0.0355 | 0.0464 | 0.0592 | 0.0722 | 0.0852 | 0.1 | 0.117
x2 = 0.7303 | 0.0138 | 0.0237 | 0.0349 | 0.047 | 0.0614 | 0.0758 | 0.0904 | 0.107 | 0.126
x2 = 0.8784 | 0.0109 | 0.0167 | 0.0237 | 0.0316 | 0.0398 | 0.05 | 0.0607 | 0.0728 | 0.0871

CN1CCN(C(=O)OC2c3nccnc3C(=O)N2c2ccc(Cl)cn2)CC1 (stereo not drawn) + CC#N + O
solubility (g/100 g solution)
Conditions | x2 = 0.3 | x2 = 0.4 | x2 = 0.5 | x2 = 0.6 | x2 = 0.7 | x2 = 0.8 | x2 = 0.9
288.15 K | 0.593 | 1.13 | 2.08 | 2.78 | 3.27 | 3.38 | 2.87
298.15 K | 0.785 | 1.72 | 2.61 | 3.38 | 4.09 | 4.14 | 3.55
308.15 K | 0.997 | 2.11 | 3.4 | 4.41 | 5.3 | 5.38 | 4.63
318.15 K | 1.26 | 2.67 | 4.26 | 5.76 | 6.74 | 7.02 | 6.08
328.15 K | 1.77 | 3.23 | 5.56 | 7.47 | 8.64 | 8.93 | 8.18

COC(=O)C1=C(C)NC(C)=C(C(=O)OCC(C)C)C1c1ccccc1[N+](=O)[O-] (stereo not drawn) + CCOC(C)=O + CC(C)O
solubility (g/100 g solution)
Conditions | 278.15 K | 283.15 K | 288.15 K | 293.15 K | 298.15 K | 303.15 K | 308.15 K | 313.15 K | 318.15 K
x2 = 0.07045 | 3.52 | 4.21 | 5.01 | 5.86 | 6.83 | 7.91 | 9.07 | 10.5 | 11.9
x2 = 0.1457 | 4.03 | 4.67 | 5.54 | 6.46 | 7.55 | 8.74 | 9.96 | 11.4 | 12.9
x2 = 0.2262 | 4.4 | 5.19 | 6.09 | 7.07 | 8.21 | 9.47 | 10.8 | 12.3 | 13.9
x2 = 0.3126 | 4.88 | 5.76 | 6.68 | 7.75 | 8.91 | 10.2 | 11.5 | 13 | 14.7
x2 = 0.4055 | 5.37 | 6.28 | 7.26 | 8.31 | 9.53 | 10.8 | 12.3 | 13.8 | 15.4
x2 = 0.5057 | 5.77 | 6.69 | 7.7 | 8.82 | 10.1 | 11.4 | 12.9 | 14.5 | 16.1
x2 = 0.6141 | 6.12 | 7.09 | 8.13 | 9.25 | 10.6 | 12 | 13.5 | 15.1 | 16.8
x2 = 0.7318 | 6.4 | 7.37 | 8.53 | 9.72 | 11 | 12.5 | 14.1 | 15.7 | 17.5
x2 = 0.8599 | 6.59 | 7.63 | 8.83 | 10 | 11.4 | 12.8 | 14.3 | 16 | 17.8

O=C(CC(=O)c1ccccc1)c1ccccc1 + CCO + O
solubility (g/100 g solution)
Conditions | 278.15 K | 283.15 K | 288.15 K | 293.15 K | 298.15 K | 303.15 K | 308.15 K | 313.15 K | 318.15 K
x2 = 0.2 | 0.0116 | 0.0406 | 0.0595 | 0.069 | 0.0786 | 0.0881 | 0.0946 | 0.177 | 0.129
x2 = 0.4 | 0.2 | 0.505 | 0.754 | 0.88 | 1.09 | 1.28 | 1.97 | 2.5 | 2.96
x2 = 0.6 | 0.577 | 0.706 | 0.904 | 1.13 | 1.47 | 2 | 2.12 | 2.61 | 3.89
x2 = 0.8 | 1.25 | 2.11 | 1.75 | 2.39 | 3.08 | 3.46 | 4.26 | 6.03 | 8.9

CN1CCN(C(=O)OC2c3nccnc3C(=O)N2c2ccc(Cl)cn2)CC1 (stereo not drawn) + C1CCOC1 + O
solubility (g/100 g solution)
Conditions | x2 = 0.3 | x2 = 0.4 | x2 = 0.5 | x2 = 0.6 | x2 = 0.7 | x2 = 0.8 | x2 = 0.9
288.15 K | 0.41 | 0.79 | 1.33 | 2.06 | 2.8 | 3.32 | 3.83
298.15 K | 0.626 | 1.14 | 1.83 | 2.66 | 3.57 | 4.41 | 4.87
308.15 K | 0.91 | 1.54 | 2.43 | 3.54 | 4.53 | 5.71 | 6.18
318.15 K | 1.13 | 2 | 3.21 | 4.68 | 6.19 | 7.53 | 8.07
328.15 K | 1.47 | 2.59 | 4.15 | 6.16 | 8.4 | 9.55 | 9.98
